Source: publication PMC7997574, “Lead Optimization of Benzoxazolone Carboxamides as Orally Bioavailable and CNS Penetrant Acid Ceramidase Inhibitors” (Journal of Medicinal Chemistry, 2020)
Converted amounts (≈) assume the structure as drawn.

Legend:
[1] = Aqueous kinetic solubility assay; assay type: physicochemical; details: PBS, pH 7.4
Experimental: The aqueous kinetic solubility was determined from a 10 mM MeCN stock solution of test compound in Phosphate-Buffered Saline (PBS) at pH 7.4. The study was performed by incubation of an aliquot of 10 mM MeCN stock solution in PBS (pH 7.4) at a target concentration of 250 μM. The incubation was carried out under shaking at 25 °C for 1 h followed by centrifugation at 21100 × g for 30 min. The supernatant was analyzed by UPLC/MS for the quantification of the dissolved compound (in μM) by UV at a specific wavelength (215 nm). […] The UPLC/MS analyses were performed on a Waters ACQUITY UPLC/MS system consisting of a single quadrupole detector (SQD) Mass Spectrometer (MS) equipped with an Electrospray Ionization (ESI) interface and a Photodiode Array Detector (PDA). The PDA range was 210–400 nm. ESI in positive mode was used in the mass scan range of 100–650 Da. The analyses were run on an ACQUITY UPLC BEH C18 column (50 × 2.1 mm ID, particle size 1.7 μm) with a VanGuard BEH C18 precolumn (5 × 2.1 mm ID, particle size 1.7 μm), using 10 mM NH4OAc in H2O at pH 5 adjusted with AcOH (A) and 10 mM NH4OAc in MeCN/H2O (95:5) at pH 5 (B) as the mobile phase. Values are reported as mean values of ≥2 experiments performed.

[2] = In vitro plasma stability study; assay type: in vitro ADME; details: mouse plasma; read-out: m-plasma t1/2
Experimental: Freshly prepared 10 mM MeCN stock solution of test compound was diluted 50-fold with DMSO/H2O (1:1) and incubated at 37 °C for 2 h with mouse plasma added in 5% DMSO (preheated at 37 °C for 10 min). The final concentration was 2 μM. At each time point (0, 5, 15, 30, 60, and 120 min), 50 μL of incubation mixture was diluted with 200 μL of cold MeCN spiked with 200 nM internal standard followed by centrifugation at 3300 × g for 20 min. The supernatant was further diluted with H2O (1:1) for analysis. The concentration of test compound was quantified by LC/MS/MS on a Waters ACQUITY UPLC/MS TQD system consisting of a TQD MS equipped with an ESI interface. The analyses were run on an ACQUITY UPLC BEH C18 (50 × 2.1 mm ID, particle size 1.7 μm) with a VanGuard BEH C18 precolumn (5 × 2.1 mm ID, particle size 1.7 μm) at 40 °C. For each compound, the appropriate mobile phase was chosen. ESI was applied in positive mode. The response factors, calculated on the basis of the internal standard peak area, were plotted over time. When possible, response vs time profiles were fitted with Prism (GraphPad Software, Inc., USA) to estimate compound t1/2 in plasma. Values are the mean of at least two independent experiments performed in two technical replicates.

[3] = In vitro microsomal stability study; assay type: in vitro ADME; details: mouse liver microsomes; for m-LM [% at 60 min]: % remaining at 60 min; for half-life at 4.6 μM / half-life at 1 h, 4.6 µM: pH 7.4, read-out: m-LM t1/2
Experimental: Freshly prepared 10 mM MeCN stock solution of test compound was preincubated at 37 °C for 15 min with mouse liver microsomes added in 0.1 M Tris HCl buffer (pH 7.4). The final concentration was 4.6 μM. After preincubation, the cofactors (NADPH, G6P, G6PDH, and MgCl2 predissolved in 0.1 M Tris HCl) were added to the incubation mixture, and the incubation was continued at 37 °C for 1 h. At each time point (0, 5, 15, 30, and 60 min), 30 μL of incubation mixture was diluted with 200 μL of cold MeCN spiked with 200 nM internal standard followed by centrifugation at 3300 × g for 15 min. The supernatant was further diluted with H2O (1:1) for analysis. The concentration of the test compound was quantified by LC/MS/MS on a Waters ACQUITY UPLC/MS TQD system consisting of a TQD MS equipped with an ESI interface. The analyses were run on an ACQUITY UPLC BEH C18 (50 × 2.1 mm ID, particle size 1.7 μm) with a VanGuard BEH C18 precolumn (5 × 2.1 mm ID, particle size 1.7 μm) at 40 °C. For each compound, the appropriate mobile phase was chosen. ESI was applied in positive mode. The percentage of test compound remaining at each time point relative to t = 0 was calculated. t1/2 was determined by a one-phase decay equation using a nonlinear regression of compound concentration vs time. Values are the mean of at least two independent experiments performed in two technical replicates.

AC = target: T1, AC (Homo sapiens, UniProt Q13510); assay: Fluorogenic hAC assay on hAC-enriched lysate of HEK293 cells; assay type: biochemical; parameters: expressed in transfected cells; details: hAC expressed in HEK-293 cells; read-out: hAC IC50 (μM)±SD
T1 sequence (Q13510 22-395): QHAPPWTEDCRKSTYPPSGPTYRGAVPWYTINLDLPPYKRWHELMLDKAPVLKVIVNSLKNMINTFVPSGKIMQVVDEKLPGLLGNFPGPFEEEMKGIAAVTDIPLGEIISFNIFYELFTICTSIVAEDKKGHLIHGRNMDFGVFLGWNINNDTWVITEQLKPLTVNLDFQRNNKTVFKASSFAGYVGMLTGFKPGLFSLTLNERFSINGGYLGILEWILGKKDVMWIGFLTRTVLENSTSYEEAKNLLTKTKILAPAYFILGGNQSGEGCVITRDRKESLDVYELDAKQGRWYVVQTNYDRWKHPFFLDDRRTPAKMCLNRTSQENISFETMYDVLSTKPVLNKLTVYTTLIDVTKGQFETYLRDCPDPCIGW
Experimental: HEK293 cells stably expressing hAC were grown in Dulbecco’s modified Eagle medium (DMEM) containing 10% FBS, 1% glutamine, 1 mM sodium pyruvate, and 500 μg mL^–1 G418. Cells were harvested, and pellets were stored at −80 °C until lysosomal-enriched lysate preparation. Cells were suspended in 20 mM Tris HCl (pH 7.5) with 0.32 M sucrose, sonicated, and centrifuged at 800 × g for 30 min at 4 °C. Supernatants were then centrifuged at 12000 × g for 30 min at 4 °C. Pellets were resuspended in PBS (pH 7.4) and subjected to three freeze–thaw cycles at −80 °C. The suspension was finally centrifuged at 105000 × g for 1 h at 4 °C, and protein concentration was measured in the supernatant with the bicinchoninic acid based protein assay. This hAC-enriched preparation allowed us to further optimize the enzymatic assay and to use small amounts of lysate (2 μg per well) at a 5 μM substrate (Rbm14–12) around its KM (KM = 5.0 μM).
The assay was performed in Optiplate 96-well black plates, with each reaction well containing a mixture of 25 mM NaOAc buffer (pH 4.5) and a fixed amount of protein (2 μg) in a volume of 85 μL. After 10 min of preincubation with test compounds (diluted 20× from DMSO stock solutions at different concentrations), the fluorogenic probe was added (diluted 40× from EtOH stock solution, final concentration 5 μM). After 3 h of incubation at 37 °C, reactions were stopped with 50 μL of MeOH and 100 μL of a 2.5 mg mL^–1 NaIO4 fresh solution in 100 mM glycine/NaOH buffer (pH 10.6). The plates were further incubated for 2 h at 37 °C in the dark, and fluorescence intensities were measured at excitation/emission wavelengths of 355/460 nm. Negative control samples consisted of the same incubation mixture in the absence of protein-enriched extracts. Data were plotted as a function of compound concentrations. IC50 values were calculated by nonlinear regression analysis using GraphPad Prism 5 (GraphPad Software Inc., CA, USA) applying a standard slope curve fitting. The reported IC50 values are the mean of at least three independent experiments performed in three technical replicates.

In the case of `Cl.O=C(NCCCCc1ccccc1)n1c(=O)oc2cc(C3CCNCC3)ccc21` [22d, 2-Oxo-N-(4-phenylbutyl)-6-(4-piperidyl)-1,3-benzoxazole-3-carboxamide Hydrochloride], the solubility at 1 h [1] is reported as 150 µM, the half-life at 2 µM [2] is reported as 60 min and the “m-LM [% at 60 min]” value [3] is reported as 70%. The half-life at 4.6 μM [3] was > 60 min and the IC50 (AC) was 0.134 ± 0.014 µM.

Work on `CN1CCC(c2ccc3c(c2)oc(=O)n3C(=O)NCCCCc2ccccc2)CC1` [22e, 6-(1-Methyl-4-piperidyl)-2-oxo-N-(4-phenylbutyl)-1,3-benzoxazole-3-carboxamide] yielded a solubility at 1 h [1] of 120 µM (≈ 48.9 µg/mL), a half-life at 2 µM [2] of 50 min and a half-life at 1 h, 4.6 µM [3] of 40 min. The IC50 (AC) was 0.129 ± 0.008 µM.

In the case of `CCN1CCC(c2ccc3c(c2)oc(=O)n3C(=O)NCCCCc2ccccc2)CC1` [22f, 6-(1-Ethyl-4-piperidyl)-2-oxo-N-(4-phenylbutyl)-1,3-benzoxazole-3-carboxamide], the solubility at 1 h [1] is reported as 198 µM (≈ 83.5 µg/mL), the half-life at 2 µM [2] is reported as 50 min and the half-life at 1 h, 4.6 µM [3] is reported as 60 min. For the same compound, the IC50 (AC) was 0.092 ± 0.043 µM.

Compound `CC(C)N1CCC(c2ccc3c(c2)oc(=O)n3C(=O)NCCCCc2ccccc2)CC1` [22g, 6-(1-Isopropyl-4-piperidyl)-2-oxo-N-(4-phenylbutyl)-1,3-benzoxazole-3-carboxamide] has a solubility at 1 h [1] of 50 µM (≈ 21.8 µg/mL), a half-life at 2 µM [2] of 40 min and a half-life at 1 h, 4.6 µM [3] of 60 min. For the same compound, the IC50 (AC) was 0.094 ± 0.042 µM.

For `CC(C)CN1CCC(c2ccc3c(c2)oc(=O)n3C(=O)NCCCCc2ccccc2)CC1` [22h, 6-(1-Isobutyl-4-piperidyl)-2-oxo-N-(4-phenylbutyl)-1,3-benzoxazole-3-carboxamide], the solubility at 1 h [1] was < 1 µM, the half-life at 2 μM [2] was 60 min and the half-life at 4.6 μM [3] was 60 min. For the same compound, the IC50 (AC) was 0.12 ± 0.03 µM.

With `CC(=O)N1CCC(c2ccc3c(c2)oc(=O)n3C(=O)NCCCCc2ccccc2)CC1` [22i, 6-(1-Acetyl-4-piperidyl)-2-oxo-N-(4-phenylbutyl)-1,3-benzoxazole-3-carboxamide] the solubility at 1 h [1] was < 1 µM, the half-life at 2 µM [2] was 30 min and the half-life at 1 h, 4.6 µM [3] was 60 min. For the same compound, the IC50 (AC) was 0.064 ± 0.029 µM.

`CN1CCC(c2ccc3c(c2)oc(=O)n3C(=O)NCCOCc2ccccc2)CC1` [22j, N-(2-Benzyloxyethyl)-6-(1-methyl-4-piperidyl)-2-oxo-1,3-benzoxazole-3-carboxamide] showed a solubility at 1 h [1] of 73 µM (≈ 29.9 µg/mL), a half-life at 2 µM [2] of 40 min and a half-life at 1 h, 4.6 µM [3] of 30 min. The IC50 (AC) was 0.215 ± 0.013 µM.

For `CCCCCNC(=O)n1c(=O)oc2cc(C3CCN(C)CC3)ccc21` [22k, 6-(1-Methyl-4-piperidyl)-2-oxo-N-pentyl-1,3-benzoxazole-3-carboxamide], the solubility at 1 h [1] was 240 µM (≈ 82.9 µg/mL), the half-life at 2 µM [2] was 75 min and the half-life at 2 μM [2] was > 60 min. The “m-LM [% at 60 min]” value [3] was >60 [60%], the half-life at 4.6 μM [3] was > 60 min and the IC50 (AC) was 0.396 ± 0.075 µM.

`CN1CCC(c2ccc3c(c2)oc(=O)n3C(=O)NCCCCc2ccc(F)cc2)CC1` [22o, N-[4-(4-Fluorophenyl)butyl]-6-(1-methyl-4-piperidyl)-2-oxo-1,3-benzoxazole-3-carboxamide] gave a solubility at 1 h [1] of 22 µM (≈ 9.36 µg/mL), a half-life at 2 µM [2] of 20 min and a half-life at 1 h, 4.6 µM [3] of 30 min. The IC50 (AC) was 0.094 ± 0.03 µM.

For `CN1CCC(c2cc3oc(=O)n(C(=O)NCCCCc4ccccc4)c3cc2F)CC1` [22p, 5-Fluoro-6-(1-methyl-4-piperidyl)-2-oxo-N-(4-phenylbutyl)-1,3-benzoxazole-3-carboxamide], the solubility at 1 h [1] was 70 µM (≈ 29.8 µg/mL), the half-life at 2 µM [2] was 20 min and the “m-LM [% at 60 min]” value [3] was 70%. For the same compound, the half-life at 4.6 μM [3] was > 60 min and the IC50 (AC) was 0.024 ± 0.002 µM.

`CN1CCC(c2ccc3c(c2)oc(=O)n3C(=O)NCCCCc2ccccc2)CC1=O` (stereo not drawn) [22q, 6-(1-Methyl-2-oxo-4-piperidyl)-2-oxo-N-(4-phenylbutyl)-1,3-benzoxazole-3-carboxamide] gave a solubility at 1 h [1] of 20 µM (≈ 8.43 µg/mL), a half-life at 2 µM [2] of 36 min and a half-life at 1 h, 4.6 µM [3] of 35 min. It also gave an IC50 (AC) of 0.105 ± 0.055 µM.

In the case of `O=C(NCCCCc1ccccc1)n1c(=O)oc2cc(C3CCN(CC(F)F)CC3)ccc21` [22r, 6-[1-(2,2-Difluoroethyl)-4-piperidyl]-2-oxo-N-(4-phenylbutyl)-1,3-benzoxazole-3-carboxamide], the solubility at 1 h [1] is reported as < 1 µM, the half-life at 2 µM [2] is reported as 50 min and the half-life at 1 h, 4.6 µM [3] is reported as 20 min. The IC50 (AC) was 0.095 ± 0.03 µM.

Compound `Cl.O=C(NCCCCc1ccccc1)n1c(=O)oc2cc(N3CCNCC3)ccc21` [23e, 2-Oxo-N-(4-phenylbutyl)-6-piperazin-1-yl-1,3-benzoxazole-3-carboxamide Hydrochloride] has a solubility at 1 h [1] of 20 µM, a half-life at 2 µM [2] of 30 min and a half-life at 1 h, 4.6 µM [3] of 45 min. It also gave an IC50 (AC) of 0.363 ± 0.18 µM.

With `CN1CCN(c2ccc3c(c2)oc(=O)n3C(=O)NCCCCc2ccccc2)CC1` [23f, 6-(4-Methylpiperazin-1-yl)-2-oxo-N-(4-phenylbutyl)-1,3-benzoxazole-3-carboxamide] the solubility at 1 h [1] was < 1 µM, the half-life at 2 μM [2] was < 5 min and the half-life at 4.6 μM [3] was < 5 min. For the same compound, the IC50 (AC) was 0.116 ± 0.069 µM.
